# Experiments:
# [1] = system: acute bronchoconstriction and late bronchial obstruction after inhalation challenge with Ascaris Suum; experiment: Ascaris suum-induced immediate and late bronchial response (mean lung resistance sR1) in allergic conscious sheep; type: in vivo; conditions: for protection of the immediate response / protection of the peak late response: 500 μg aerosolized 30 minutes prior to ascaris suum challenge, referenced to historical controls, n=3
# Source text: (§1) The measurement of biological activity in a pulmonary model of allergic asthma and lung inflammation was undertaken in adult conscious sheep. The methodology was essentially as described by W. M. Abraham et al. (Bull. Eur. Physiopathol. Respir., 22, 387 (1986)). Adult sheep with a natural cutaneous reaction to Ascaris Suum extract and who respond to inhalation challenge with Ascaris Suum with both an acute bronchoconstriction and a late bronchial obstruction were used in the study.
# Unsedated sheep were intubated and measurement of airway mechanics were computed and recorded on a digital computer utilizing inputs of transpulmonary pressure and tracheal airflow recordings. Each animal was exposed to an aerosol of ascaris suum, diluted to produce an immediate and significant increase in mean lung resistance (sR1) of approximately 600-700% above baseline. […] This second response is known as the late response. sR1 returned to baseline by 24 hours. Each animal was exposed to an aerosol of ascaris suum at a minimum of two week interval. […]
# (§2) Each test drug was aerosolized to an animal 30 minutes prior to challenge with ascaris suum.
# [2] = system: airway responsiveness to aerosolized carbachol after exposure to ascaris suum; experiment: Airway responsiveness to aerosolized carbachol (PC150) before and after Ascaris suum challenge in allergic conscious sheep; type: in vivo; conditions: 500 μg aerosolized, PC150 of carbachol 24 hours prior to and 24 post ascaris suum exposure, closer to unity is better
# Source text: as §1
# Airway responsiveness was measured by calculation of a PC150 value. The PC150 is the dose of aerosolized carbachol which produces a 150% increase in sR1 above baseline. The doses of carbachol were administered in an ascending dose-response fashion with each dose being administered for a 10 breath duration. The PC150 value was determined for each animal 24 hours prior to exposure to ascaris suum and again 24 post exposure. The difference in PC150 values represented a change in airway responsiveness. The closer the post challenge to prechallenge ratio to unity the better the effect of the particular compound.
# as §2
Molecule,protection of the immediate response [1] [%],protection of the peak late response [1] [%],protection against lung function changes due to aerosol challenge of ascaris suum ([1]; overall comparison with the parent steroid),post challenge/prechallenge ratio of PC150 values (airway hyperresponsiveness) [2]
"6α-Fluoro-11β-hydroxy-16α,17-((1-methylethylidene)bis(oxy))pregna-1,4-diene-3,20-dione-21-(3-methyl-3-nitrosothio)-butanoate [Example 1]",59±14,89±2,better protection,1.18±0.06
"CC1(C)O[C@@H]2C[C@H]3[C@@H]4C[C@H](F)C5=CC(=O)C=C[C@]5(C)[C@H]4[C@@H](O)C[C@]3(C)[C@]2(C(=O)CO)O1 [6α-Fluoro-11β, 21-dihydroxy-16α, 17α-((1-methylethylidene)bis(oxy))pregna-1,4-diene-3,20-dione, reference compound]",16±21,83±7,,0.98±0.10

# Reference: patent publication US7345037B2, “Nitrosated and nitrosylated compounds and compositions and their use for treating respiratory disorders” (Nitromed, Inc., priority 1996, dated 2008)
